Key:
[1] = system: human mesothelial cells; experiment: Asbestos-induced ROS (DCF fluorescence) in human mesothelial cells; format: cell-based; conditions: asbestos 10 μg crocidolite/cm^2 or H2O2 100 μM; SDG 50 μM
Experimental: SDG blunts asbestos-induced ROS secretion by human mesothelial cells in vitro (FIG. 50). Experimental plan for detecting asbestos-induced ROS in cells: (human mesothelial) HM cells or mouse macrophages plated in 20% DMEM for 24 hours; Added 20 μM DCF in HBSS for 1 hour; Supernatant replaced with 1% DMEM containing H2O2 (100 μM), asbestos (10 μg crocidolite/cm^2) and/or SDG (50 μM); and Fluorescence level monitored up to 36 hours post-initiation of asbestos exposure.

[2] = system: calf thymus DNA; experiment: Radiation-induced calf thymus DNA fragmentation assay; format: biochemical; conditions: 50 Gy
Experimental: Plasmid DNA (pBR322) or calf thymus DNA samples with or without varying concentrations of SDG (R,R), SDG (S,S) and SDG (commercial) were exposed to γ-radiation with a Mark 1 cesium (Cs-137) irradiator (J. L. Shepherd, San Fernando, Calif.) at a dose rate of 1.7 Gy/min in phosphate buffered saline, pH 7.4 (PBS).
The effect of test compounds on radiation-induced strand breaks in DNA was determined using calf thymus DNA (Sigma, St. Louis, Mo.). DNA (500 ng) in PBS (pH 7.4) was mixed with varying concentrations (25-250 μM) of SDG (R,R), SDG (S,S) and SDG (commercial) and irradiated at 50 Gy for 30 min. A second series of experiments were performed at varying concentrations ranging from 0.5-10 μM. Samples were mixed with loading dye and subjected to agarose (1%) gel electrophoresis in TAE buffer (pH, 8.3) at 100 V. The gel was stained with ethidium bromide (0.5 μg/ml) for 40 min, washed for 20 min and then visualized on a UV trans-illuminator (Bio-Rad, Hercules, Calif.). The captured gel images were scanned and the density of the calf thymus DNA fragments was determined by Gel-Pro image analyzer program (Media Cybernetics, Silver Spring, Md.). The density of the low mol. wt (<6,000 bps) and the high mol. wt (>6,000 bps) fragments of calf thymus DNA was expressed as % of the total density (low mol wt.+high mol. wt.).

COc1cc(C[C@@H](CO[C@@H]2O[C@H](CO)[C@@H](O)[C@H](O)[C@H]2O)[C@H](CO[C@@H]2O[C@H](CO)[C@@H](O)[C@H](O)[C@H]2O)Cc2ccc(O)c(OC)c2)ccc1O [SDG, secoisolariciresinol diglucoside]
ROS levels [1]: significantly lowers ROS levels to baseline levels | Concentration at which maximum radioprotection of genomic DNA is achieved [2]: approximately 5.0 μM | Radioprotective properties of SDG and metabolites compared ([2]; 10 μM of each agent): equipotent

— US10966995B2, “Use of secoisolariciresinol diglucosides (SDGS) and related compounds for protection against radiation and chemical damage” (THE TRUSTEES OF THE UNIVERSITY OF PENNSYLVANIA, priority 2014, dated 2021)
